According to patent publication US20170291905A1, “ARGININE […] INHIBITORS AND USES THEREOF” (Epizyme, Inc., priority 2014, published 2017):

Biological target: full-length human PRMT8 isoform 1 (Homo sapiens, UniProt Q9NR22)
Assay: PRMT8 biochemical assay (3H-SAM Flashplate, histone H4 31-45 peptide)
Settings: 1.5 nM PRMT8, 30 min preincubation, 150 nM peptide
Text: S-adenosylmethionine (SAM), S-adenosylhomocysteine (SAH), bicine, Tween20, dimethylsulfoxide (DMSO), bovine skin gelatin (BSG), isopropyl-β-D-thiogalactopyranoside (IPTG), and Tris(2-carboxyethyl)phosphine hydrochloride solution (TCEP) were purchased from Sigma-Aldrich at the highest level of purity possible. ^3H-SAM was purchase from American Radiolabeled Chemicals with a specific activity of 80 Ci/mmol. 384-well streptavidin Flashplates were purchased from PerkinElmer.
Peptide representative of human histone H4 residues 31-45 was synthesized with an N-terminal linker-affinity tag motif and a C-terminal amide cap by 21st Century Biochemicals. The peptide was purified by high-performance liquid chromatography (HPLC) to greater than 95% purity and confirmed by liquid chromatography mass spectrometry (LC-MS). The sequence was Biot-Ahx-[…]-amide (SEQ ID NO.:8).
The resulting construct encodes an N-terminal GST tag and a thrombin cleavage sequence
E. coli (BL21(DE3) Gold, Stratagene) made competent by the CaCl2 method were transformed with the PRMT8 construct and ampicillin selection. Protein over-expression was accomplished by growing the PRMT8 expressing E. coli clone and inducing expression with 0.3 mM IPTG at 16° C. The culture was grown for 12 hours, harvested by centrifugation, and stored at −80° C. for purification.
GST-tagged PRMT8 was eluted with 50 mM Tris, 2 mM glutathione, pH 7.8. Pooled fractions were cleaved by thrombin (10U) and dialysed in buffer A. GST was removed by reloading the cleaved protein sample onto glutathione sepharose column and PRMT8 was collected in the flow-through fractions. PRMT8 was purified further by ceramic hydroxyapatite chromatography. The column was washed with 50 mM phosphate buffer, 100 mM NaCl, 5% glycerol, 5 mM […], pH 7.8 and PRMT8 was eluted by 100 mM phosphate in the same buffer. Protein was concentrated and buffer was exchanged to 50 mM Tris, 300 mM NaCl, 10% glycerol, 5 mM β-mercaptoethanol, pH 7.8 by ultrafiltration. The purity of recovered protein was 89%.
General Procedure for PRMT8 Enzyme Assays on Peptide Substrates.
The assays were all performed in a buffer consisting of 20 mM Bicine (pH=7.6), 1 mM TCEP, 0.005% BSG, and 0.002% Tween 20, prepared on the day of use. Compounds in 100% DMSO (1 ul) were spotted into a polypropylene 384-well V-bottom plates (Greiner) using a Platemate Plus outfitted with a 384-channel head (Thermo Scientific). DMSO (1 ul) was added to Columns 11, 12, 23, 24, rows A-H for the maximum signal control and 1 ul of SAH, a known product and inhibitor of PRMT8, was added to columns 11, 12, 23, 24, rows I-P for the minimum signal control. A cocktail (40 ul) containing the PRMT8 enzyme was added by Multidrop Combi (Thermo-Fisher). The compounds were allowed to incubate with PRMT8 for 30 min at room temperature, then a cocktail (10 ul) containing ^3H-SAM and peptide was added to initiate the reaction (final volume=51 ul). The final concentrations of the components were as follows: PRMT8 was 1.5 nM, ^3H-SAM was 50 nM, non-radiolabeled SAM was 550 nM, peptide was 150 nM, SAH in the minimum signal control wells was 1 mM, and the DMSO concentration was 2%. The assays were stopped by the addition of non-radiolabeled SAM (10 ul) to a final concentration of 400 uM, which dilutes the ^3H-SAM to a level where its incorporation into the peptide substrate is no longer detectable. 50 ul of the reaction in the 384-well polypropylene plate was then transferred to a 384-well Flashplate and the biotinylated peptides were allowed to bind to the streptavidin surface for at least 1 hour before being washed once with 0.1% Tween20 in a Biotek ELx405 plate washer. The plates were then read in a PerkinElmer TopCount plate reader to measure the quantity of ^3H-labeled peptide bound to the Flashplate surface, measured as disintegrations per minute (dpm) or alternatively, referred to as counts per minute (cpm). […]

Sequence of full-length human PRMT8 isoform 1 (Q9NR22 whole entry, canonical isoform): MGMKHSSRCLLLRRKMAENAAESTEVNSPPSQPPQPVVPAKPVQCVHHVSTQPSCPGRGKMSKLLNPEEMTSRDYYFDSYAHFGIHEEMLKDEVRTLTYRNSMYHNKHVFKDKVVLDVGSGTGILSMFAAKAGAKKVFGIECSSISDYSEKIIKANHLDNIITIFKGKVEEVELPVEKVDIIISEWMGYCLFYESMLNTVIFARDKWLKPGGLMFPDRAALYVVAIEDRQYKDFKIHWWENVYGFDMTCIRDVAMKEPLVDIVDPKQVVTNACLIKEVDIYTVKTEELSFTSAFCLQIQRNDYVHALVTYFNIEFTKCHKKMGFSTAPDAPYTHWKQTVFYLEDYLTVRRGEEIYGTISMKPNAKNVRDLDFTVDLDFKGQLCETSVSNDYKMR

SMILES	IC50
CNCCN(C)Cc1c[nH]nc1C1CCC(C)(C)[C@H](COCCOC)C1 (stereo partly drawn) [compound 35, {2-[({3-[(3R)-3-[(2-methoxyethoxy)methyl]-4,4-dimethylcyclohexyl]-1H-pyrazol-4-yl}methyl)(methyl)amino]ethyl}(methyl)amine]	110 nM
CCCOCC1(COCCC)CCC(c2n[nH]cc2CN(C)CCNC)CC1 [compound 36, N^1-((3-(4,4-bis(propoxymethyl)cyclohexyl)-1H-pyrazol-4-yl)methyl)-N^1,N^2-dimethylethane-1,2-diamine]	12.4 nM
CC[C@]12CC[C@](CC)(C[C@H](c3n[nH]cc3CN(C)CCNC)C1)O2 [compound 37, N1-((3-((1R,3r,5S)-1,5-diethyl-8-oxabicyclo[3.2.1]octan-3-yl)-1H-pyrazol-4-yl)methyl)-N1,N2-dimethylethane-1,2-diamine]	45.5 nM
CC[C@]12CC[C@](CC)(C[C@@H](c3n[nH]cc3CN(C)CCNC)C1)O2 [compound 38, N1-((3-((1R,3s,5S)-1,5-diethyl-8-oxabicyclo[3.2.1]octan-3-yl)-1H-pyrazol-4-yl)methyl)-N1,N2-dimethylethane-1,2-diamine]	177 nM
CNCCN(C)Cc1ccnn1[C@H]1CC[C@]2(CC1)CC(C)(C)CO2 [compound 50, N1-((1-((5r,8r)-3,3-dimethyl-1-oxaspiro[4.5]decan-8-yl)-1H-pyrazol-5-yl)methyl)-N1,N2-dimethylethane-1,2-diamine]	32.2 nM
Cc1[nH]nc([C@H]2CC[C@@]3(CC2)CC(C)(C)CO3)c1CN(C)CCN [compound 51, N1-((3-((5s,8s)-3,3-dimethyl-1-oxaspiro[4.5]decan-8-yl)-5-methyl-1H-pyrazol-4-yl)methyl)-N1-methylethane-1,2-diamine]	14.2 nM
Cc1[nH]nc([C@H]2CC[C@]3(CC2)CC(C)(C)CO3)c1CN(C)CCN [compound 52, N1-((3-((5r,8r)-3,3-dimethyl-1-oxaspiro[4.5]decan-8-yl)-5-methyl-1H-pyrazol-4-yl)methyl)-N1-methylethane-1,2-diamine]	23.1 nM
CNCCN(C)Cc1c(C)[nH]nc1[C@H]1CC[C@@]2(CC1)CC(C)(C)CO2 [compound 57]	32.7 nM
CNCCN(C)Cc1c(C)[nH]nc1[C@H]1CC[C@]2(CC1)CC(C)(C)CO2 [compound 58]	55.1 nM
Cc1[nH]nc(C2CCC3(CC2)CC(C)(C)CO3)c1CN(C)CCN (stereo not drawn) [compound 59]	17.5 nM
CCOCC1(COCC)CC=C(c2n[nH]cc2CN(C)CCNC)CC1 [compound 60]	22.5 nM
CNCCN(C)Cc1scnc1[C@H]1CC[C@@]2(CC1)CC(C)(C)CO2 [compound 62]	9.08 nM
CNCCN(C)Cc1nn(C)nc1[C@H]1CC[C@@]2(CC1)CC(C)(C)CO2 [compound 64]	25.3 nM
CNCCN(C)Cc1cnnn1[C@H]1CC[C@@]2(CC1)CC(C)(C)CO2 [compound 65]	> 10000 nM
CNCCN(C)Cc1nn[nH]c1[C@H]1CC[C@@]2(CC1)CC(C)(C)CO2 [compound 67]	19.8 nM
CNCCN(C)Cc1nncn1[C@H]1CC[C@@]2(CC1)CC(C)(C)CO2 [compound 68]	3480 nM
CNCCN(C)Cc1nccn1[C@H]1CC[C@@]2(CC1)CC(C)(C)CO2 [compound 69]	273 nM
CNCCN(C)Cc1nnc(C)n1[C@H]1CC[C@@]2(CC1)CC(C)(C)CO2 [compound 71]	4320 nM
CNCCN(C)Cc1cncn1[C@H]1CC[C@@]2(CC1)CC(C)(C)CO2 [compound 76]	15.7 nM
CNCCN(C)Cc1nc(C)sc1[C@H]1CC[C@@]2(CC1)CC(C)(C)CO2 [compound 77]	27.7 nM
CNCCN(C)Cc1sc(C)nc1[C@H]1CC[C@@]2(CC1)CC(C)(C)CO2 [compound 78]	33.8 nM
CN(CCN)Cc1nn(C)cc1[C@H]1CC[C@@]2(CC1)CC(C)(C)CO2 [compound 80]	12.1 nM
CNCCN(C)Cc1nn(C)cc1[C@H]1CC[C@@]2(CC1)CC(C)(C)CO2 [compound 81]	30.9 nM
CNCCN(C)Cc1ncsc1[C@H]1CC[C@@]2(CC1)CC(C)(C)CO2 [compound 83]	18.5 nM
